The test system of one experiment is bacterial spores. Briefly: relation between ozone concentration and time needed for sterilization of bacterial spore samples. Format: cell-based. Conditions: ozone concentration 2-3 mgr/l (based on 1 atm), moisture content 60-80%. The method, then: Experimentally, the relation has been investigated between ozone concentration and the time needed for sterilization. A typical measurement procedure is as follows. A sample with bacterial spores is prepared, and exposed in the chamber 10 to an ozone-containing atmosphere with a specific temperature and air humidity, during a specific treatment time, after which the sample is removed from the chamber 10. […] Thus, a series of samples is treated, each time with different treatment times. To obtain a greater certainty, the measurements are repeated, which means that at a certain treatment time always multiple measurements are done with different samples.
The treated samples are subsequently placed in a conditioned breeding chamber, and it is monitored at which samples bacterial growth is and at which samples bacterial is not taking place. […]
The results obtained from the culture were correlated to the treatment times. For each value of the ozone concentration, it was assessed what the LONGEST treatment time was where bacterial growth was still observed: this treatment time was apparently insufficient to guarantee 100% elimination of the spores; this measurement point and all measurement points with shorter treatment times, in FIG. 2, are indicated with open circles. […]

Experiment [1] deals with spores of the bacterium Bacillus Atrophaeus. Description: sterilization of standard spore strips (10E6), growth check after 48 hours at 37° C. in tryptone soya broth. The class given is cell-based. From the text:
The FIGS. 3A-3B illustrate another experiment, executed on spores of the bacterium Bacillus Atrophaeus (previously known as Bacillus subtilis var. niger); from all bacterial spores, the spores of this bacterium Bacillus Astrophaeus are the most resistant to ozone. Use was made of standard spore strips with the qualification 10E6; these are strips on which in the order of 10^6 bacterial spores have been deposited. The used strips were obtained from the company Etigam BV in Apeldoorn, Netherlands. According to statement of the supplier, these spores were obtained from the American Type Culture Collection (ATCC) 9372.
In this experiment, the spore strips were submitted to a sterilization process, wherein the ozone concentration, the degree of humidity and the treatment time were measured. The spore strips were removed from the sterilization chamber, and than were stored for 48 hours at a temperature of 37° C. in a test tube filled with tryptone soya broth (“tryptone Soya Broth”, TSB). TSB is a standard nutrition medium, obtainable at Tritium-Microbiologie BV in Veldhoven, Netherlands, type indication T406.24.0005.
Each time, four spore strips were treated simultaneously. After the storage time of 48 hours, for each spore strip it was investigated whether bacterial spores had grown. If visually no bacterial growth could be detected, it was assumed that all spores of the relevant spore strip had been killed. If visually bacterial growth could be detected, the relevant spore strip was qualified as “insufficiently sterilized”. The results are presented in the FIGS. 3A and 3B, wherein FIG. 3A relates to measurements at an ambient temperature of 20° C. during the sterilization process and FIG. 3B relates to measurements at an ambient temperature of 30° C. during the sterilization process. The horizontal axis in the figures represents the measured degree of humidity in percentages, the vertical axis represents the time integral of the ozone concentration, indicated as ∫[O3], in units of gr·s/l. In the area 131, 100% of the bacterial spores of all four the test strips were always killed. In the area 132, each time one spore strip was insufficiently sterilized. In the area 133, each time two spore strips were insufficiently sterilized. In the area 134, each time three or four spore strips were insufficiently sterilized. The rectangular areas that are cut away from the top left of the graphs are areas belonging to test strips that were not analyzed.

For `O=[O+][O-]` [ozone], the “sterilization result in experimental set-up” value in the experiment on bacterial spores is recorded as “good results”. In experiment [1] (FIG. 3A, ambient temperature 20° C.), the “degree of humidity giving optimal sterilization result” value was “approximately 80 % RH”. For the same molecule, in experiment [1] (ambient temperature increased to 30° C. (versus 20° C.)), the “effect of increasing the ambient temperature on sterilization” value is on record as “favourable effect”. Also, the “effect of increasing the degree of humidity on sterilization” value in experiment [1] (degree of humidity increased to 95%) is reported as “did not give clear improvement”. Moreover, the “sterilization at low degree of humidity” value in experiment [1] (less than 50% RH) is given as “no good sterilization proved to be possible”. In experiment [1] (worst case 60% RH and 20° C., valid at all humidity above 60% RH, at 20° C. and 30° C.), the “ozone performance equivalent OPEQ (minimum time integral of ozone concentration leading to 100% sterilization)” value turned out to be 15 gr·s/l.

The record behind these values is patent US20100196194A1, “METHOD FOR S[…] WITH OZONE” (BRADFORD I[…], priority 2006, published 2010).
